Here are results for eight compounds from PubChem BioAssay AID1259407 (Chemical Carcinogenesis Research Information System (CCRIS), 2018).

This data set relates to CCRIS mutagenicity, Ames/micronucleus/aberration tests. The experiment in a line: CCRIS mutagenicity studies.
[1] abbreviates: Test System: AMES SALMONELLA TYPHIMURIUM, Strain/Indicator: TA98, Metabolic Activation: NONE, Method: STANDARD PLATE.
Setting [2] is: Test System: AMES SALMONELLA TYPHIMURIUM, Strain/Indicator: TA98, Metabolic Activation: RAT, LIVER, S-9, AROCLOR 1254, Method: STANDARD PLATE.
Where [3] appears, read: Test System: AMES SALMONELLA TYPHIMURIUM, Strain/Indicator: TA100, Metabolic Activation: NONE, Method: STANDARD PLATE.
Setting [4] is: Test System: AMES SALMONELLA TYPHIMURIUM, Strain/Indicator: TA100, Metabolic Activation: RAT, LIVER, S-9, AROCLOR 1254, Method: STANDARD PLATE.
[5] abbreviates: Test System: AMES SALMONELLA TYPHIMURIUM, Strain/Indicator: TA1535, Metabolic Activation: NONE, Method: STANDARD PLATE.
The mark [6] stands for this setting: Test System: AMES SALMONELLA TYPHIMURIUM, Strain/Indicator: TA1535, Metabolic Activation: RAT, LIVER, S-9, AROCLOR 1254, Method: STANDARD PLATE.
[7] abbreviates: Test System: AMES SALMONELLA TYPHIMURIUM, Strain/Indicator: TA1537, Metabolic Activation: NONE, Method: STANDARD PLATE.
The mark [8] stands for this setting: Test System: AMES SALMONELLA TYPHIMURIUM, Strain/Indicator: TA1537, Metabolic Activation: RAT, LIVER, S-9, AROCLOR 1254, Method: STANDARD PLATE.
Setting [9] is: Test System: AMES SALMONELLA TYPHIMURIUM, Strain/Indicator: TA98, Metabolic Activation: NONE, Method: PREINCUBATION
The mark [10] stands for this setting: Test System: AMES SALMONELLA TYPHIMURIUM, Strain/Indicator: TA100, Metabolic Activation: NONE, Method: PREINCUBATION
Setting [11] is: Test System: AMES SALMONELLA TYPHIMURIUM, Strain/Indicator: TA100, Metabolic Activation: RAT, LIVER, S-9, AROCLOR 1254, Method: PREINCUBATION

Active and inactive are the calls of the source. No rule for the calls is given here.

`Nc1nc2ccc([N+](=O)[O-])cc2s1`: the mutagenic call was “active; positive” (Test System: AMES SALMONELLA TYPHIMURIUM, Strain/Indicator: TA98, Metabolic Activation: HAMSTER, LIVER, S-9, AROCLOR 1254, Method: STANDARD PLATE); “active; positive” under setting [1]; “active; positive” under setting [2]; “active; positive” (Test System: AMES SALMONELLA TYPHIMURIUM, Strain/Indicator: TA100, Metabolic Activation: HAMSTER, LIVER, S-9, AROCLOR 1254, Method: STANDARD PLATE); “inactive; negative” under setting [3]; “active; positive” under setting [4]. The mutagenic call was “active; positive” (Test System: AMES SALMONELLA TYPHIMURIUM, Strain/Indicator: TA1535, Metabolic Activation: HAMSTER, LIVER, S-9, AROCLOR 1254, Method: STANDARD PLATE); “inactive; negative” under setting [5]; “inactive; negative” under setting [6]; “active; positive” (Test System: AMES SALMONELLA TYPHIMURIUM, Strain/Indicator: TA1537, Metabolic Activation: HAMSTER, LIVER, S-9, AROCLOR 1254, Method: STANDARD PLATE); “inactive; negative” under setting [7]; “inactive; negative” under setting [8]. For the same compound, the mutagenic call is “active; positive” (Test System: AMES SALMONELLA TYPHIMURIUM, Strain/Indicator: TA1538, Metabolic Activation: HAMSTER, LIVER, S-9, AROCLOR 1254, Method: STANDARD PLATE); “active; positive” (Test System: AMES SALMONELLA TYPHIMURIUM, Strain/Indicator: TA1538, Metabolic Activation: NONE, Method: STANDARD PLATE); “active; positive” (Test System: AMES SALMONELLA TYPHIMURIUM, Strain/Indicator: TA1538, Metabolic Activation: RAT, LIVER, S-9, AROCLOR 1254, Method: STANDARD PLATE); “inactive; negative. reevaluation of results: negative” (Test System: MOUSE LYMPHOMA, Strain/Indicator: L5178Y (TK+/TK-), Metabolic Activation: NONE, Method: SUSPENSION/PLATE); “inactive; negative. reevaluation of results: negative” (Test System: MOUSE LYMPHOMA, Strain/Indicator: L5178Y (TK+/TK-), Metabolic Activation: RAT, LIVER, S-9, AROCLOR 1254, Method: SUSPENSION/PLATE).
`CNc1ccc(C(=C2C=CC(=[N+](C)C)C=C2)c2ccc(N(C)C)cc2)cc1`: under “Test System: AMES SALMONELLA TYPHIMURIUM, Strain/Indicator: TA100, Method: PREINCUBATION”, the mutagenic call was “active; positive”.
Take `CCCC(=O)Nc1snc2cc(Cl)ccc12`: the mutagenic call under setting [3] is “inactive; negative”; the mutagenic call (Test System: AMES SALMONELLA TYPHIMURIUM, Strain/Indicator: TA100, Metabolic Activation: S-9, Method: STANDARD PLATE) was “inactive; negative”; the mutagenic call under setting [7] was “inactive; negative”; the mutagenic call (Test System: AMES SALMONELLA TYPHIMURIUM, Strain/Indicator: TA1537, Metabolic Activation: S-9, Method: STANDARD PLATE) was “inactive; negative”.
Consider `O=C1c2ccccc2C(=O)c2c(O)cc(O)cc21`, for which the mutagenic call under setting [9] was “inactive; negative”; the mutagenic call (Test System: AMES SALMONELLA TYPHIMURIUM, Strain/Indicator: TA98, Metabolic Activation: RAT, LIVER, S-9, PCB, Method: PREINCUBATION) is “active; positive”; the mutagenic call under setting [10] was “inactive; negative”; the mutagenic call (Test System: AMES SALMONELLA TYPHIMURIUM, Strain/Indicator: TA100, Metabolic Activation: RAT, LIVER, S-9, PCB, Method: PREINCUBATION) is “active; positive”; the mutagenic call (Test System: AMES SALMONELLA TYPHIMURIUM, Strain/Indicator: TA1537, Metabolic Activation: NONE, Method: PREINCUBATION) was “active; positive”; the mutagenic call (Test System: AMES SALMONELLA TYPHIMURIUM, Strain/Indicator: TA1537, Metabolic Activation: RAT, LIVER, S-9, Method: PREINCUBATION) was “active; positive”. Besides, the mutagenic call reads like this: (Test System: CHINESE HAMSTER V-79, Strain/Indicator: V-79/8-AZAGUANINE, Metabolic Activation: NONE, Method: STANDARD PLATE) “active; positive”; (Test System: CHINESE HAMSTER V-79, Strain/Indicator: V-79/8-AZAGUANINE, Metabolic Activation: PRIMARY RAT HEPATOCYTES, Method: STANDARD PLATE) “active; positive”; (Test System: UDS RODENT HEPATOCYTES, Strain/Indicator: THY INCORP (NON-S-PHASE), Metabolic Activation: NONE, Method: AUTORADIOGRAPHY) “active; positive”.
Take `CCCC(=O)OCc1ccc([N+](=O)[O-])cc1`: the mutagenic call runs as follows: under setting [9], “inactive; negative”; (Test System: AMES SALMONELLA TYPHIMURIUM, Strain/Indicator: TA100(NR), Metabolic Activation: NONE, Method: PREINCUBATION) “inactive; negative”; under setting [10], “active; positive”; under setting [11], “active; positive”.
Regarding `ONc1ccc(Br)cc1`, the mutagenic call (Test System: E. COLI, Strain/Indicator: WP2 UVRA, Metabolic Activation: NONE, Method: FLUCTUATION TEST) is “inactive; negative”.
On to `CCCCS(=O)(=O)n1ncc(Cl)c(Cl)c1=O`, for which the mutagenic call is, setting by setting: under setting [1], “inactive; negative”; under setting [2], “inactive; negative”; under setting [3], “active; positive”; under setting [4], “active; positive”; under setting [5], “inactive; negative”; under setting [6], “active; positive”. Further, the mutagenic call under setting [7] is “inactive; negative” and the mutagenic call under setting [8] is “inactive; negative”.
On to `CN(C)c1nc2c3cccnc3ccc2n1C`, for which the mutagenic call (Test System: AMES SALMONELLA TYPHIMURIUM, Strain/Indicator: TA98, Metabolic Activation: RAT, LIVER, S-9, AROCLOR 1254, Method: PREINCUBATION) is “active; positive” and the mutagenic call under setting [11] is “active; positive”.
